Where a name gives a salt, the structure may show the parent alone.
How the values were obtained:
[1] = Stability, 5 weeks at 45° C. and humidity of 80% (HPLC remaining rate); type: physicochemical; settings: after 5 weeks, humidity of 80%; for remaining at 840 h: solid, 80% humidity; for Remaining rate: 50400 min
Description: One gram each of CB3A, CK3A and various metal salts thereof was placed in a beaker and the beaker was allowed to stand for 5 weeks in a constant temperature and humidity bath controlled at a temperature of 45° C. and a humidity of 80%. After 5 weeks, a remaining rate of the compound was analyzed quantitatively with a high performance liquid chromatography "Tri rotar" manufactured by Nippon Bunko K. K. (Japan).
A0 = initial amount of the compound prior to standing in the constan
temperature and humidity bath
A1 = final amount of the compound after 5 weeks

[2] = tested on: serum cholesterol; experiment: Serum cholesterol lowering activity, oral, rabbit, 5 successive days; type: in vivo; settings: two times a day, 5 days
Description: (1) Serum cholesterol lowering activity the metal salt of organic phosphate according to the present invention was orally administered to a rabbit (body weight of about 3 Kg) two times a day (at 9:00 a.m. and 4:00 p.m.) for 5 successive days. After 5 days, blood was sampled and the total cholesterol value in serum was measured in a conventional manner.

[3] = Water solubility, hygroscopic property and stability (statements in words); type: physicochemical
[4] = tested on: synthesis of cholesterol; settings: in words; Japanese Patent Application No. 165490/1983, J. Antibiotics 38, 328-332 (1985); cited from earlier work
[5] = tested on: mouse; experiment: Acute toxicity, mouse; type: in vivo
Text: (§1) The acute toxicity of the metal salt of CB3A and of CK3A was examined by orally or peritoneally administrating an aqueous solution or dispersion thereof the results are shown in Table 2.
(§2) a . . . per os (oral administration)
(§3) b . . . intraperitoneal injection

[6] = tested on: rat; experiment: Acute toxicity, rat; type: in vivo
Text: as §1, §2, §3

[7] = Acute toxicity, mouse; type: in vivo; settings: in vivo
Text: as §1, §2, §3

[8] = Acute toxicity, rat; type: in vivo; settings: in vivo
Text: as §1, §2, §3

[9] = Absorbability and effect (statement in words)

| SMILES | Total Serum cholesterol lowering rate ([2]; 1.5 mg/kg/day) [%] | Total Serum cholesterol lowering rate ([2]; 6 mg/kg/day) [%] | stability [3] | water solubility [3] | hygroscopic property [3] | Remaining rate [1] [%] | LD50 ([5]; intraperitoneal injection) [mg/kg] | LD50 ([5]; per os (oral administration)) [mg/kg] | LD50 ([6]; intraperitoneal injection) [mg/kg] | LD50 ([6]; per os (oral administration)) [mg/kg] | also measured |
| --- | --- | --- | --- | --- | --- | --- | --- | --- | --- | --- | --- |
| CCC(C)C(=O)OC1CCC=C2C=CC(C)C(CCC(CC(O)CC(=O)OC)OP(=O)(O)O)C21 (centres unmarked) [CB3A methyl ester-2K salt, Dipotassium salt of CB3A methyl ester] | 19.5 | 33.8 | excellent | excellent |  |  |  |  |  |  | remaining at 840 h [1]: 84% |
| CCC(C)C(=O)OC1CCC=C2C=CC(C)C(CCC(CC(O)CC(=O)OC)OP(=O)(O)O)C21 (centres unmarked) [CB3A methyl ester-Ca salt, Calcium salt of CB3A methyl ester] | 23.0 | 40.6 | particularly excellent |  | no hygroscopic property |  |  |  |  |  |  |
| CCC(C)C(=O)OC1CCC=C2C=CC(C)C(CCC(CC(O)CC(=O)OC)OP(=O)(O)O)C21 (centres unmarked) [CB3A methyl ester] |  |  |  |  |  |  |  |  |  |  | activity of inhibiting the synthesis of cholesterol [4]: strong activity of inhibiting the synthesis of cholesterol |
| CCC(C)C(=O)OC1CCC=C2C=CC(C)C(CCC(CC(O)CC(=O)O)OP(=O)(O)O)C21 (centres unmarked) [CB3A-1.5Ba salt, Sesquibarium salt of CB3A] | 21.3 | 36.6 | particularly excellent |  | no hygroscopic property |  |  |  |  |  |  |
| CCC(C)C(=O)OC1CCC=C2C=CC(C)C(CCC(CC(O)CC(=O)O)OP(=O)(O)O)C21 (centres unmarked) [CB3A-1.5Ca salt, Sesquicalcium salt of CB3A] | 23.2 | 40.2 | particularly excellent |  | no hygroscopic property | 97 | > 500 | > 2000 | > 500 | > 2000 |  |
| CCC(C)C(=O)OC1CCC=C2C=CC(C)C(CCC(CC(O)CC(=O)O)OP(=O)(O)O)C21 (centres unmarked) [CB3A-1.5Mg salt] | 21.1 | 36.3 |  |  |  |  |  |  |  |  |  |
| CCC(C)C(=O)OC1CCC=C2C=CC(C)C(CCC(CC(O)CC(=O)O)OP(=O)(O)O)C21 (centres unmarked) [CB3A-1K salt, Monopotassium salt of CB3A] | 19.6 | 33.7 | excellent | excellent |  |  |  |  |  |  |  |
| CCC(C)C(=O)OC1CCC=C2C=CC(C)C(CCC(CC(O)CC(=O)O)OP(=O)(O)O)C21 (centres unmarked) [CB3A-1Na salt] |  |  |  |  |  | 74 |  |  |  |  |  |
| CCC(C)C(=O)OC1CCC=C2C=CC(C)C(CCC(CC(O)CC(=O)O)OP(=O)(O)O)C21 (centres unmarked) [CB3A-2K salt, Dipotassium salt of CB3A] | 19.1 | 34.2 | excellent | excellent |  |  |  |  |  |  |  |
| CCC(C)C(=O)OC1CCC=C2C=CC(C)C(CCC(CC(O)CC(=O)O)OP(=O)(O)O)C21 (centres unmarked) [CB3A-2Na salt] |  |  |  |  |  | 78 |  |  |  |  |  |
| CCC(C)C(=O)OC1CCC=C2C=CC(C)C(CCC(CC(O)CC(=O)O)OP(=O)(O)O)C21 (centres unmarked) [CB3A-3K salt, Tripotassium salt of CB3A] | 19.4 | 33.9 | excellent | excellent |  |  |  |  |  |  | LD50 ([7]; ip, intraperitoneal injection): > 500 mg/kg; LD50 ([7]; per os (oral administration)): > 2000 mg/kg; LD50 ([8]; ip, intraperitoneal injection): > 500 mg/kg; LD50 ([8]; per os (oral administration)): > 2000 mg/kg |
| CCC(C)C(=O)OC1CCC=C2C=CC(C)C(CCC(CC(O)CC(=O)O)OP(=O)(O)O)C21 (centres unmarked) [CB3A-3Na salt, Trisodium salt of CB3A] | 18.5 | 34.3 | excellent | excellent |  | 82 | > 500 | > 2000 | > 500 | > 2000 |  |
| CCC(C)C(=O)OC1CCC=C2C=CC(C)C(CCC(CC(O)CC(=O)O)OP(=O)(O)O)C21 (centres unmarked) [CB3A-Al salt, Aluminum salt of CB3A] | 24.2 | 41.6 | particularly excellent |  | no hydroscopic property | 98 | > 500 | > 2000 | > 500 | > 2000 |  |
| CCC(C)C(=O)OC1CC(C)C=C2C=CC(C)C(CCC(CC(O)CC(=O)OC)OP(=O)(O)O)C21 (centres unmarked) [CK3A methyl ester-2K salt, Dipotassium salt of CK3A methyl ester] | 18.7 | 34.7 | excellent | excellent |  |  |  |  |  |  | remaining at 840 h [1]: 83% |
| CCC(C)C(=O)OC1CC(C)C=C2C=CC(C)C(CCC(CC(O)CC(=O)OC)OP(=O)(O)O)C21 (centres unmarked) [CK3A methyl ester-Ca salt, Calcium salt of CK3A methyl ester] | 24.9 | 39.2 | particularly excellent |  | no hygroscopic property |  |  |  |  |  |  |
| CCC(C)C(=O)OC1CC(C)C=C2C=CC(C)C(CCC(CC(O)CC(=O)OC)OP(=O)(O)O)C21 (centres unmarked) [CK3A methyl ester] |  |  |  |  |  |  |  |  |  |  | activity of inhibiting the synthesis of cholesterol [4]: strong activity of inhibiting the synthesis of cholesterol |
| CCC(C)C(=O)OC1CC(C)C=C2C=CC(C)C(CCC(CC(O)CC(=O)O)OP(=O)(O)O)C21 (centres unmarked) [CK3A, reference compound] | 9.7 | 24.4 | unstable |  |  | 13 | > 500 | > 2000 | > 500 | > 2000 | absorbability and effect [9]: unsatisfactory; activity of inhibiting the synthesis of cholesterol [4]: strong activity of inhibiting the synthesis of cholesterol |
| CCC(C)C(=O)OC1CC(C)C=C2C=CC(C)C(CCC(CC(O)CC(=O)O)OP(=O)(O)O)C21 (centres unmarked) [CK3A-1.5Ba salt, Sesquibarium salt of CK3A] | 21.1 | 36.6 | particularly excellent |  | no hygroscopic property |  |  |  |  |  |  |
| CCC(C)C(=O)OC1CC(C)C=C2C=CC(C)C(CCC(CC(O)CC(=O)O)OP(=O)(O)O)C21 (centres unmarked) [CK3A-1.5Ca salt, Sesquicalcium salt of CK3A] | 24.5 | 39.9 | particularly excellent |  | no hygroscopic property | 96 | > 500 | > 2000 | > 500 | > 2000 |  |
| CCC(C)C(=O)OC1CC(C)C=C2C=CC(C)C(CCC(CC(O)CC(=O)O)OP(=O)(O)O)C21 (centres unmarked) [CK3A-1.5Mg salt] | 22.1 | 36.3 |  |  |  |  |  |  |  |  |  |
| CCC(C)C(=O)OC1CC(C)C=C2C=CC(C)C(CCC(CC(O)CC(=O)O)OP(=O)(O)O)C21 (centres unmarked) [CK3A-3K salt, Tripotassium salt of CK3A] | 18.9 | 34.7 | excellent | excellent |  | 85 |  |  |  |  | LD50 ([7]; ip, intraperitoneal injection): > 500 mg/kg; LD50 ([7]; per os (oral administration)): > 2000 mg/kg; LD50 ([8]; ip, intraperitoneal injection): > 500 mg/kg; LD50 ([8]; per os (oral administration)): > 2000 mg/kg |
| CCC(C)C(=O)OC1CC(C)C=C2C=CC(C)C(CCC(CC(O)CC(=O)O)OP(=O)(O)O)C21 (centres unmarked) [CK3A-3Na salt, Trisodium salt of CK3A] | 17.1 | 30.0 | excellent | excellent |  |  | > 500 | > 2000 | > 500 | > 2000 |  |
| CCC(C)C(=O)OC1CC(C)C=C2C=CC(C)C(CCC(CC(O)CC(=O)O)OP(=O)(O)O)C21 (centres unmarked) [CK3A-Al salt, Aluminum salt of CK3A] | 23.4 | 41.6 | particularly excellent |  | no hygroscopic property | 98 | > 500 | > 2000 | > 500 | > 2000 |  |
